Assay results taken from the supplement of paper PMC5908809.

What was measured:
Assay in all cases: relative IC50 (inflection point of fitted viability curve, relative to fitted max inhibition); higher = less sensitive
Conditions in all cases: 72 h
[1] = system: normal primary NK cells, pool 3 (3 donors) (IL-2 2.5 ng/mL)
Experimental: (§1)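 Drug sensitivity and resistance testing: 5 concentrations over a 10,000-fold range, 72 h at 37 °C, viability by CellTiter-Glo normalised to DMSO and benzethonium chloride controls. IC50 is the inflection point of a logistic fit (min fixed at 0, max fitted), so it is relative to the fitted maximal inhibition. Kept only where fitted max inhibition is at least 50%.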

IMC-1 (IL-2 20 ng/mL) = system: IMC-1 (IL-2 20 ng/mL)
Experimental: as §1

[2] = system: normal primary NK cells, pool 2 (3 donors) (IL-2 2.5 ng/mL)
Experimental: as §1

YT (IL-2 2.5 ng/mL) = system: YT (IL-2 2.5 ng/mL)
Experimental: as §1

NKL (IL-2 2.5 ng/mL) = system: NKL (IL-2 2.5 ng/mL)
Experimental: as §1

KAI3 (IL-2 2.5 ng/mL) = system: KAI3 (IL-2 2.5 ng/mL)
Experimental: as §1

KHYG-1 (IL-2 2.5 ng/mL) = system: KHYG-1 (IL-2 2.5 ng/mL)
Experimental: as §1

NK-92 (IL-2 2.5 ng/mL) = system: NK-92 (IL-2 2.5 ng/mL)
Experimental: as §1

[3] = system: normal primary NK cells, pool 1 (3 donors) (IL-2 2.5 ng/mL)
Experimental: as §1

NK-YS (IL-2 2.5 ng/mL) = system: NK-YS (IL-2 2.5 ng/mL)
Experimental: as §1

DERL-7 (IL-2 2.5 ng/mL) = system: DERL-7 (IL-2 2.5 ng/mL)
Experimental: as §1

SNK-6 (IL-2 2.5 ng/mL) = system: SNK-6 (IL-2 2.5 ng/mL)
Experimental: as §1

[4] = system: normal primary NK cells, pool 1 (3 donors), resting (IL-2 0 ng/mL)
Experimental: as §1

SMILES	relative IC50 [1] [µM]	relative IC50 (IMC-1 (IL-2 20 ng/mL)) [µM]	relative IC50 [2] [µM]	relative IC50 (YT (IL-2 2.5 ng/mL)) [µM]	relative IC50 (NKL (IL-2 2.5 ng/mL)) [µM]	relative IC50 (KAI3 (IL-2 2.5 ng/mL)) [µM]	relative IC50 (KHYG-1 (IL-2 2.5 ng/mL)) [µM]	relative IC50 (NK-92 (IL-2 2.5 ng/mL)) [µM]	relative IC50 [3] [µM]	relative IC50 (NK-YS (IL-2 2.5 ng/mL)) [µM]	relative IC50 (DERL-7 (IL-2 2.5 ng/mL)) [µM]	relative IC50 (SNK-6 (IL-2 2.5 ng/mL)) [µM]	relative IC50 [4] [µM]
Nc1nc2[nH]cc(CCc3ccc(C(=O)N[C@@H](CCC(=O)O)C(=O)O)cc3)c2c(=O)[nH]1 [Pemetrexed]	> 10	0.146	> 10										
Nc1nc2[nH]cnc2c(=S)[nH]1 [Thioguanine]		1.3	1.9	0.383	1.44	1.78	0.322	0.742	2.1	0.296	2.35	0.938	
CNC(=O)c1ccc(-c2cnc3ncc(Cc4ccc5ncccc5c4)n3n2)cc1F [NVP-INC280]	> 1								> 1				
CCc1cncnc1N1CCN(Cc2nc3ccc(C(F)(F)F)cc3[nH]2)CC1		2.14			1.84			1.46	1.79				1.82
C[C@@H](Nc1cc(F)cc(F)c1)c1cc(C(=O)N(C)C)cc2c(=O)cc(N3CCOCC3)oc12 [AZD-8186]	> 1	> 1			> 1								
COCC(=O)NC/C=C/c1ccc2ncnc(Nc3ccc(Oc4ccc(C)nc4)c(C)c3)c2c1		2.92			2.07	1.87		1.47				3.27	0.834
CCn1c(=O)c(-c2cc[nH]n2)cc2c(C)nc(N)nc21 [Voxtalisib]				1.11	0.88	0.818	1.64	0.685		1.34	0.457	3.19	
CN(C)CCOc1ccc(/C(=C(/CCCl)c2ccccc2)c2ccccc2)cc1 [Toremifene]						2.03		2.19	3.74		1.09		2.37
CNC(=O)c1cccc(-c2ccc3c(N4CCOC[C@@H]4C)nc(N4CCOC[C@@H]4C)nc3n2)c1 [AZD2014]				0.295	0.0367	0.0248	0.714	0.317		0.266	0.137	0.117	
Cc1cc(C)c(/C=C2\C(=O)Nc3ccccc32)[nH]1 [Semaxanib]	> 10				> 10				> 10		> 10		> 10
Cc1cnc(Nc2ccc(OCCN3CCCC3)cc2)nc1Nc1cccc(S(=O)(=O)NC(C)(C)C)c1 [Fedratinib]	0.479	0.929	0.462										
Oc1ccc2c(c1)CC[C@H](c1ccccc1)[C@@H]2c1ccc(OCCN2CCCC2)cc1 [Lasofoxifene]	> 1		> 1		> 1								
COc1cc2c(Oc3ccc4[nH]c(C)cc4c3F)ncnc2cc1OCCCN1CCCC1 [Cediranib]	> 1												
CN1CCC(COc2cnc(-c3cccc(Cn4nc(-c5cccc(C#N)c5)ccc4=O)c3)nc2)CC1	> 1	> 1				> 1				> 1			
Nc1cc(C(F)(F)F)c(-c2cc(N3CCOCC3)nc(N3CCOCC3)n2)cn1 [Buparlisib]		3.9		1.21	0.269	0.887	0.781	0.734		0.52	1.07	0.0429	
C[C@]12CC[C@@H]3c4ccc(OC(=O)N(CCCl)CCCl)cc4CC[C@H]3[C@@H]1CC[C@@H]2O [Estramustine]	> 10	> 10											
CC[C@@H]1C(=O)N(C)c2cnc(Nc3ccc(C(=O)NC4CCN(C)CC4)cc3OC)nc2N1C1CCCC1 [BI 2536]		0.0148	0.218	0.0263	0.00981	0.00837	0.0221	0.0114		0.0135	0.00862	0.00457	
Cc1ccccc1C(C(=O)NC1CCCCC1)N(C(=O)Cn1ccnc1C)c1cccc(F)c1 (stereo unspecified) [AGI-5198]									> 10				
COc1cccc2cc(-c3nc([C@H]4CC[C@H](C(=O)O)CC4)n4ncnc(N)c34)[nH]c12 [OSI-027]				1.16	0.342	0.775	1.5	0.579		1.82	1.22	0.564	
CC(=O)Nc1cccc(-n2c(=O)n(C3CC3)c(=O)c3c(Nc4ccc(I)cc4F)n(C)c(=O)c(C)c32)c1 [Trametinib]	> 0.25	> 0.25			0.00251		0.00489	> 0.25					
CCCS(=O)(=O)Nc1ccc(F)c(C(=O)c2c[nH]c3ncc(-c4ccc(Cl)cc4)cc23)c1F [Vemurafenib]				1.91	1.9	1.91	1.13	1.61		3.08	1.76	3.17	
O=P1(N(CCCl)CCCl)NCCCO1 (stereo unspecified) [Cyclophosphamide]		> 40		> 40			> 40						5.79
CN1CCN(c2ccc3nc(-c4c(N)c5c(F)cccc5[nH]c4=O)[nH]c3c2)CC1 [Dovitinib]		> 10			1.9							> 10	1.86
FC(F)c1nc2ccccc2n1-c1nc(N2CCOCC2)nc(N2CCOCC2)n1 [ZSTK474]				0.262	0.436	0.29		0.0312		0.655	0.11	0.832	
C[C@]1(c2nc3c(C(N)=O)cccc3[nH]2)CCCN1 [Veliparib]									2.02				3.59
CCc1cc2c(cc1N1CCC(N3CCOCC3)CC1)C(C)(C)c1[nH]c3cc(C#N)ccc3c1C2=O [Alectinib]	> 1											> 1	
COc1cc(C(=O)O)ccc1NC(=O)[C@@H]1N[C@@H](CC(C)(C)C)[C@](C#N)(c2ccc(Cl)cc2F)[C@H]1c1cccc(Cl)c1F [Idasanutlin]	0.265		0.197										
